Measurements taken from ChEMBL document CHEMBL1122714, “Pyrazolo[4,3-d]pyrimidine nucleosides. Synthesis and antiviral activity of 1-beta-D-ribofuranosyl-3-methyl-6-substituted-7H-pyrazolo[4,3-d]pyr imi din-7-ones” (1984).

test system: Human alphaherpesvirus 1; experiment: In vitro antiviral activity by means of plaque-inhibition assay with monolayers of Vero cells infected with the MP strain of herpes simplex virus-1 (HSV-1); format: functional; conditions: Human alphaherpesvirus 1, Vero; read-out: ED50 (the source's name)

Compound	EC50 [µM]
Cc1nn(C2O[C@H](CO)[C@@H](O)[C@H]2O)c2c(=O)n(-c3ccc(Cl)cc3)cnc12 (some centres undefined)	50
CCCCn1cnc2c(C)nn(C3O[C@H](CO)[C@@H](O)[C@H]3O)c2c1=O (some centres undefined)	152
Cc1nn(C2O[C@H](CO)[C@@H](O)[C@H]2O)c2c(=O)n(CCC(C)C)cnc12 (some centres undefined)	350
Cc1nn(C2O[C@H](CO)[C@@H](O)[C@H]2O)c2c(=O)n(Cc3ccccc3)cnc12 (some centres undefined)	245
COc1ccc(Cn2cnc3c(C)nn(C4O[C@H](CO)[C@@H](O)[C@H]4O)c3c2=O)cc1 (some centres undefined)	49.5
Cc1ccc(-n2cnc3c(C)nn(C4O[C@H](CO)[C@@H](O)[C@H]4O)c3c2=O)cc1 (some centres undefined)	280
Cc1nn(C2O[C@H](CO)[C@@H](O)[C@H]2O)c2c(=O)n(CCc3ccccc3)cnc12 (some centres undefined)	174
Cc1nn(C2O[C@H](CO)[C@@H](O)[C@H]2O)c2c(=O)n(Cc3ccc(Cl)cc3)cnc12 (some centres undefined)	220
O=c1[nH]c(=O)n([C@H]2C[C@H](O)[C@@H](CO)O2)cc1I [IDOXURIDINE]	1.2
